Assay results taken from patent publication US9244074B2 (University of Hawaii, priority 2011, dated 2016).
*1 amine or outer side, *2 acyl side, *3 side chain or, on linkers, in order; H or OH if unused. Where a SMILES comes first, the peptide text is derived from it. Bridges are numbered along the chain shown (N, C = ends). Roman numbers before positions name the chains, in order. [ ]: non-standard residue; d: D form. Actinocin(9to1) = Cc1c2oc3c(C)ccc(C(=O)[*:1])c3nc-2c(C(=O)[*:2])c(N)c1=O; NMeV = CN[C@H](C(=O)O)C(C)C; Sar = CNCC(=O)O

Legend:
[1] = test system: human mesothelial (HM) cells; assay: HMGB1 localization in HM cells by immunofluorescence staining; assay type: cell-based; details: 6 hrs exposure; H2O2 100 μM, actinomycin D 0.1 μM
Procedure: After fixation and permeabilization, cells were incubated with HMGB1 antibody (BD Bioscience Pharmingen) and a fluorescein-conjugated secondary antibody (Chemicon, Temecula). Nuclei were stained with DAPI.

macrophages = assay: TNF-α secretion by macrophages given culture medium from exposed HM; assay type: cell-based, human; details: concentrated HM culture medium added to macrophages
Procedure: Expression levels of HMGB1 and its receptors RAGE, TLR2 and TLR4 in a panel of 8 MM cell lines and 8 distinct primary HM cultures were determined Primary human mesothelial cells (HM) were obtained from pleural effusions of eight different patients, pathologically diagnosed free of malignancy at the Queen's Medical Center, Honolulu, Hi. […] HM were cultured in Dulbecco's Modified Eagle Medium (DMEM) (Mediatech Inc., Manassas, Va.) containing 20% fetal bovine serum (FBS) (Gibco, Carlsbad, Calif.) and penicillin-streptomycin (100 units/ml penicillin G and 100 μg/ml streptomycin sulfate) (GIBCO), and were used between second and fifth passages. THP-1 human monocytes (ATCC, Manassas, Va.) were differentiated into macrophages by phorbol 12-myristate 13-acetate (TPA). The pleural malignant mesothelioma (MM) cell lines were established from surgically resected human MM specimens and used comparatively in our studies. REN cells were provided by Dr. Steven Albelda (University of Pennsylvania, Philadelphia, Pa.), while all other cell lines used in this study were provided by Dr. Harvey I. Pass (NYU School of Medicine, New York, N.Y.). MM cells were maintained in DMEM containing 10% FBS. All cells were cultured at 37° C. in a humidified atmosphere with 5% CO2 and grown to approximately 80-90% confluency. […]
Next, it was determined whether the release of HMGB1 was linked to an inflammatory response. […]

Structure (SMILES): OO [H2O2]
- HMGB1 localization in HM cells [1]: translocated from the nucleus into the cytosol

Structure (SMILES): Cc1c2oc3c(C)ccc(C(=O)N[C@@H]4C(=O)N[C@H](C(C)C)C(=O)N5CCC[C@H]5C(=O)N(C)CC(=O)N(C)[C@@H](C(C)C)C(=O)O[C@@H]4C)c3nc-2c(C(=O)N[C@@H]2C(=O)N[C@H](C(C)C)C(=O)N3CCC[C@H]3C(=O)N(C)CC(=O)N(C)[C@@H](C(C)C)C(=O)O[C@@H]2C)c(N)c1=O [actinomycin D] (I: T[dV]P[Sar][NMeV] / II: T[dV]P[Sar][NMeV]; ester I:1-I:C, II:1-II:C; linker I:N-II:N via Actinocin(9to1))
- macrophage secretion of TNF-α induced by culture medium from HM exposed to the substance (macrophages): did not induce TNF-α secretion
- HMGB1 localization in HM cells [1]: remained within the nucleus
